Values of other authors, collected in patent US7560446B2, “Use of angiotensin II receptor antagonists for treating acute myocardial infarction” (Novartis AG, priority 1999, dated 2009).

Conditions: preclinical; administration of the compound in acute MI; no details given

In the case of CCCCC(=O)N(Cc1ccc(-c2ccccc2-c2nnn[nH]2)cc1)[C@H](C(=O)O)C(C)C [valsartan, (S)—N-(1-carboxy-2-methylprop-1-yl)-N-pentanoyl-N—[2′(1H-tetrazol-5-yl)biphenyl-4-ylmethyl]amine], the “size of the MI” value is given as “reduce the size of the MI”.
